Here are results for three molecules from patent US9399631B2, “Polyphenol proteasome inhibitors, synthesis, and methods of use” (UNIVERSITY OF SOUTH FLORIDA, priority 2003, dated 2016).

What is called IC50 is the midpoint of a concentration-inhibition curve.

In one assay the test system is DU145 cells. Nature of the assay: Cell-free caspase-3 activity assay, DU145 cells. The assay is classed as cell-based, human. To be noted: 10 μM, 72 hours, normalized to 0 hours. As to the method:
(§1) To examine whether (+)-EGCG could induce apoptosis only in LNCaP, but not DU-145, cells, both cell lines were treated with 10 μM (+)-EGCG for 0, 24, 48 or 72 hours, followed by performance of cell-free caspase-3 activity assay. Cells were harvested at each sequential time-point and activity was determined by incubating whole cell extracts with caspase-3 substrate and measuring free AMCs (FIG. 20C). All the time-points were normalized to 0 hours. (+)-EGCG activated caspase-3 in LNCaP cells in a time-dependent manner: by 2.5-, 3.5- and 6-fold at 24, 48 and 72 hours, respectively (FIG. 20C). In contrast, little caspase-3 activity was detected in (+)-EGCG-treated in DU145 cells: only ˜2-fold induction at 72 hours (FIG. 20C). In the same experiment, (−)-EGCG at 10 μM was used as a control. […] Therefore, the abilities of (+)-EGCG to activate apoptotic program in these prostate cancer cell lines are correlated well to their abilities to accumulate Bax protein levels to a critical high threshold (compare FIGS. 20C and 20D vs. 20B). Values are means of triplicate independent experiments and error bars denote standard deviations.

In another assay the test system is LNCaP cells. As to the kind of experiment: Cell-free caspase-3 activity assay, LNCaP cells. The format is cell-based, human. To be noted: 10 μM, normalized to 0 hours. As to the method:
as §1

The test system of the next assay is purified 20S proteasome. To be noted: natural (−)-EGCG; cited from earlier work.
Assay [1] has as its system prokaryotic 20S proteasome. As to the kind of experiment: Dialysis assay for irreversible inhibition, prokaryotic 20S proteasome. The assay is classed as biochemical, Methanosarcina thermophile. As to the method: Materials. Highly purified tea polyphenols (−)-EGCG (>95%), (−)-GCG (>98%), (−)-ECG (>98%), (−)-CG (>98%), fetal calf serum, propidium iodide, 3-[4,5-dimethylthiazol-2-yl]-2,5-diphenyltetrazolium bromide (MTT), RNase A, and DMSO were purchased from Sigma (St. Louis, Mo.). (+)-EGCG, benzyl-protected-(+)-EGCG, (+)-GCG, (−)-EGCG-amide, and (+)-EGCG-amide were prepared by enantioselective synthesis (see below). Purified 20S eukaryotic proteasome from rabbit was purchased from BOSTON BIOCHEM (Cambridge, Mass.). Purified 20S prokaryotic proteasome (Methanosarcina thermophile, Recombinant, E. coli) was purchased from CALBIOCHEM (La Jolla, Calif.). Fluorogenic peptide substrates Suc-Leu-Leu-Val-Tyr-AMC (for the proteasomal chymotrypsin-like activity) was obtained from Calbiochem (La Jolla, Calif.). RPMI 1640 medium, Dulbecco's modified Eagle's medium, MEM non-essential amino acids solution, MEM-sodium pyruvate solution, penicillin, and streptomycin were from INVITROGEN (Carlsbad, Calif.). Monoclonal antibody to p27^Kip was purchased from PHARMINGEN (San Diego, Calif.); polyclonal antibodies to IκB-α, Bax and actin, and monoclonal antibody to ubiquitin were from SANTA CRUZ Biotechnology Inc. (Santa Cruz, Calif.).
Assays for irreversible inhibition. To measure the effect of dialysis on (−)-EGCG-mediated proteasome inhibition, 20S prokaryotic proteasome (2 μg) was incubated with 10 μM (−)-EGCG or the control solvent (H2O) in 50 mM Tris-HCl, pH 7.5 for 1 hour. This was then incubated at 4° C. either without or with dialysis overnight using a 10,000 MWCO Pierce Slide-A-Lyzer Dialysis Cassette (Rockford, Ill.) in a rotating bath of 50 mM Tris-HCl, pH 7.5. The proteasomal chymotrypsin-like activity was then assayed as previously described. As a control, an EGCG solution (without purified 20S proteasome) was dialyzed overnight, followed by measurement of the effects on inhibition of the proteasome activity.
To investigate the nature of (−)-EGCG-mediated proteasome inhibition, a dialysis experiment was performed. […]

A further assay has as its system WI-38 cells. Nature of the assay: Western blot of p27 in normal WI-38 fibroblasts. The assay is classed as cell-based, human. As to conditions: 25 μM, 36 hours. As to the method:
Cell Culture, Cell Extract Preparation, and Western Blot Assay. Human leukemia Jurkat T and prostate cancer LNCaP cells were cultured in RPMI 1640 medium supplemented with 10% fetal calf serum, 100 units/ml of penicillin, and 100 μg/ml streptomycin. Human immortalized, non-transformed NK cells (YT cell line) (38) were cultured in RPMI 1640 supplemented with 1 mM MEM sodium pyruvate solution, 0.1 mM MEM non-essential amino acids solution, 10% fetal calf serum. 100 units/ml penicillin, and 100 μg/ml streptomycin. Normal (WI-38) and simian virus 40 (SV40)-transformed (VA-13) human fibroblasts were grown in Dulbecco's modified Eagle's medium supplemented with 10% fetal calf serum, 100 units/ml of penicillin and 100 μg/ml of streptomycin. All cells were maintained at 37° C. in a humidified incubator with an atmosphere of 5% CO2. A whole cell extract was prepared in accordance with An et al. (An, B. et al. Cell Death Differ, 1998, 5:1062-75). Briefly, cells were harvested, washed with PBS twice, and homogenized in a lysis buffer [50 mM Tris-HCl (pH 8.0), 5 mM EDTA, 150 mM NaCl, 0.5% NP-40, 0.5 mM phenylmethylsulfonyl fluoride, and 0.5 mM dithiothreitol] for 30 min at 4° C. […] The ratio of p27 or IκB-α to the corresponding actin was determined by scanning intensities of the protein bands. […]

Another assay relates to MCF-7 cells. As to the kind of experiment: Proteasome inhibition / p27 accumulation in MCF-7 cells. The format is cell-based, human.

Turning to `O=C(OC1Cc2c(O)cc(O)cc2OC1c1cc(O)c(O)c(O)c1)c1cc(O)c(O)c(O)c1` (single isomer, unassigned; (+)) [(+)-EGCG], in the assay with DU145 cells, the caspase-3 induction is on record as ~2 fold. Also, the caspase-3 activation with LNCaP cells (24 hours) came to 2.5 fold; in the assay with LNCaP cells (48 hours) it was 3.5 fold; in the assay with LNCaP cells (72 hours) it was 6 fold.

Take `O=C(O[C@@H]1Cc2c(O)cc(O)cc2O[C@@H]1c1cc(O)c(O)c(O)c1)c1cc(O)c(O)c(O)c1` [(−)-EGCG, (−)-epigallocatechin-3-gallate, reference compound]: the IC50 in the assay with purified 20S proteasome is 0.1 to 0.2 µM. In addition, the “inhibition of chymotrypsin-like activity” value was 81% in assay [1] (10 μM, 1 h pre-incubation, overnight dialysis); 85% in assay [1] (10 μM, absence of dialysis); “no inhibition was observed” in assay [1] (compound dialyzed overnight before addition to proteasome (EGCG pre)).

In the case of `O=C(N[C@@H]1Cc2c(O)cc(O)cc2O[C@@H]1c1cc(O)c(O)c(O)c1)c1cc(O)c(O)c(O)c1` [(−)-EGCG-amide, (−)-[2R,3R]-N-[5,7-Dihydroxy-2-(3,4,5-trihydroxyphenyl)-chroman-3-yl]-3,4,5-trihydroxybenzamide], the p27 levels entry with WI-38 cells is listed as “slightly increased”. For the same molecule, the “inhibition of proteasome activity / accumulation of p27” value in the assay on MCF-7 cells is “able to inhibit the proteasome activity”.
